# Measured values reported in patent US8183006B2, “Screening method for identifying new aminoacyl-tRNA synthetase inhibitors” (Fundacio Privada Parc Cientific de Barcelona, priority 2006, dated 2012).
# Experiments:
# [1] = test system: isoleucyl-tRNA synthetases (IleRS) from Gram-positive infectious pathogens; conditions: cited from earlier work
# [2] = limits use to topical applications; cited from earlier work
# [3] = test system: HeLa cells expressing S. pneumoniae editing-defective isoleucyl-tRNA synthetase (IleRSTA); assay: valine toxicity in transfected HeLa cells, cell death by propidium iodide staining (flow cytometry); assay type: cell-based, human; conditions: IleRSTA-expressing HeLa cells compared to wild type IleRS or GFP expressing HeLa cells; FIG. 2
# Description: Cell death was measured by propidium iodide staining. Axis y represents the percentage of cell survival (abbreviated as “% C.S.”) and axis x represents the concentration of valine (mM).
# For transient transfections, 20 μg of each DNA construct was added to 500 μl water containing 252 mM CaCl2. Then, 500 μl of 2×Hepes-buffered-saline buffer (280 mM NaCl, 10 mM KCl, 1.5 mM Na2HPO4, 50 mM HEPES, 12 mM dextrose, pH 7.1) was added to the DNA mixture drop by drop. 16 hours after adding this transfection mixture to the cells, the medium containing DNA was removed and new medium was added. After 24 hours, transfected cells were used for experimentation.
# 10 μg/ml propidium iodide was used for determination of cell viability in transiently GFP fusion proteins transfected HeLa cells. Stained cells were analyzed immediately using a Coulter Epics XL (Beckman Coulter) and analyzed using System II software.
# To assess whether the expression S. pneumoniae mutated editing domain GFPIleRS has a toxic effect in a mammalian system in the presence of increasing concentrations of valine in the media, GFP, S. pneumoniae wild type (IleRS) and mutated editing domain (IleRSTA) were expressed in HeLa cells.
Compound,selectivity for pathogen vs. mammalian IleRS [1],systemic bioavailability [2],sensitivity to cell death (% cell survival) with increasing concentrations of valine in the media [3]
C/C(=C\C(=O)OCCCCCCCCC(=O)O)C[C@@H]1OC[C@H](C[C@@H]2O[C@H]2[C@@H](C)[C@H](C)O)[C@@H](O)[C@H]1O [Pseudomonic acid],~8000 fold,lack of systemic bioavailability,–
CC(C)[C@H](N)C(=O)O [valine],–,–,higher sensitivity
